Measurements reported in PubChem BioAssay (NCI).
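Cultured in 96-well plates, cells were exposed to test compound for 48 hours across five concentrations. GI50 marks 50% less growth. TGI marks complete inhibition of growth.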

How the values were obtained:
Experiment in all cases: DTP human tumour cell line panel, 48 h
SF-268 CNS = system: SF-268 CNS
LOX IMVI melanoma = system: LOX IMVI melanoma
OVCAR-8 ovarian = system: OVCAR-8 ovarian
CAKI-1 renal = system: CAKI-1 renal
EKVX NSCLC = system: EKVX NSCLC
TK-10 renal = system: TK-10 renal
SK-MEL-28 melanoma = system: SK-MEL-28 melanoma
UACC-62 melanoma = system: UACC-62 melanoma
SK-OV-3 ovarian = system: SK-OV-3 ovarian
MCF7 breast = system: MCF7 breast

Row | Compound | GI50 (SF-268 CNS) [µM] | TGI (SF-268 CNS) [µM] | GI50 (LOX IMVI melanoma) [µM] | TGI (LOX IMVI melanoma) [µM] | GI50 (OVCAR-8 ovarian) [µM] | TGI (OVCAR-8 ovarian) [µM] | GI50 (CAKI-1 renal) [µM] | TGI (CAKI-1 renal) [µM] | GI50 (EKVX NSCLC) [µM] | TGI (EKVX NSCLC) [µM] | GI50 (TK-10 renal) [µM] | TGI (TK-10 renal) [µM] | GI50 (SK-MEL-28 melanoma) [µM] | TGI (SK-MEL-28 melanoma) [µM] | GI50 (UACC-62 melanoma) [µM] | TGI (UACC-62 melanoma) [µM] | GI50 (SK-OV-3 ovarian) [µM] | TGI (SK-OV-3 ovarian) [µM] | GI50 (MCF7 breast) [µM] | TGI (MCF7 breast) [µM]
1 | O=C1/C(=C/c2ccc(C(F)(F)F)cc2)COc2ccc(O)cc21 | 2.75 | 13.6 | 1.69 | 3.11 | 3.26 | 11.1 | 1.74 | 3.85 | 10.7 | 22.5 | 3.7 | 14.3 | 1.79 | 3.8 | 2.36 | 6.84 | 16.2 | 29.7 |  | 
2 | CN(C(=O)C1CC1)C1C2CN3CCC(O2)C13 (stereo not drawn) |  | > 100 |  | > 100 |  |  |  | > 100 |  | > 100 |  | > 100 |  | > 100 |  | > 100 |  | > 100 |  | 
3 | C=CC[C@@]1(C#N)C[C@H](C[C@]2(C#N)C[C@H](CCl)OC(C)(C)O2)OC(C)(C)O1 |  | > 100 |  | > 100 |  | > 100 |  | > 100 |  | > 100 |  | > 100 |  | > 100 |  | > 100 |  | > 100 |  | 
4 | NC(=O)C12CCC1C1CCCCC12N1CCOCC1 (stereo not drawn) |  | > 100 |  | > 100 |  | > 100 |  | > 100 |  | > 100 |  | > 100 |  | > 100 |  | > 100 |  | > 100 |  | 
5 | ClC1=C(Cl)C(Cl)=C(Cl)C1=Cc1ccc(Cl)cc1Cl | 0.308 | 1.43 | 0.184 | 0.384 |  |  |  |  | 0.523 | 4.37 |  |  | 0.567 | 2.8 | 0.192 | 0.495 | 1.74 | 5.98 | 0.319 | > 100
6 | CC(=O)Oc1cc(OC(C)=O)c2cc3c(cc2c1OC(C)=O)C(=O)C1(CCCC1)C3=O |  | 66.5 |  | 33.5 |  | 31.6 |  | 25.2 |  | 38 |  | 31.3 |  | 31.7 |  | 30.2 |  | 31.4 |  | 
7 | CCN1CCN(c2nc(C)cc(N(CCCNc3ccnc4cc(Cl)ccc34)Cc3ccco3)n2)CC1 | 4.31 | 20.6 | 1.76 | 3.75 | 4.08 | 19.5 |  |  | 7.67 | 25.3 | 2.13 | 4.9 | 1.82 | 3.6 | 1.97 | 3.97 | 7.82 | 30.7 | 2.98 | 14.8
8 | Cc1ccc(C(=O)NC(C)C)cc1N=NN(C)C |  | > 100 |  | > 100 |  | > 100 |  | > 100 |  | > 100 |  | > 100 |  | > 100 |  | > 100 |  |  |  | 
9 | O=C(Cc1nc2ccccc2s1)C(=O)Nc1ccc(Cl)cc1Cl |  | > 100 |  | > 100 |  | > 100 |  |  |  |  |  | > 100 |  | > 100 |  |  |  | > 100 |  | 
10 | CC(C)(C)[Si](Nc1ccccc1)(c1ccccc1)c1ccccc1 |  | 28 |  | 26.1 |  | 34 |  |  |  | 30.3 |  | 28 |  | 32 |  | 22.7 |  | 30.9 |  | 
11 | CC(C)[C@H](O)C(=O)N[C@H]1Cc2ccc3c(c2)[C@]24C5=C(N=C(O5)[C@H](C(C)C)NC1=O)c1nc(Cl)c(o1)-c1c(Cl)[nH]c5cccc(c15)-c1cccc2c1N[C@H]4O3 | < 0.001 | 7.32 |  |  |  |  | 0.00468 | 3.29 |  | > 10 |  |  |  |  |  |  |  | > 10 | < 0.001 | > 10
12 | O=C(Cc1ccccc1)NN1C(=O)C(Cl)C1c1ccccc1 (stereo not drawn) |  | > 100 |  |  |  | > 100 |  | > 100 |  | > 100 |  | > 100 |  | > 100 |  | > 100 |  | > 100 |  | 
13 | C#CCOc1cccc(Nc2ncnc3c2ncn3C2CCN(C(=O)CCl)C2)c1 (stereo not drawn) | 17.7 | 38.2 |  |  | 30.7 | > 100 | 16.8 | 30.7 | 26.1 | 74.2 | 17.1 | 31.7 | 23 | 53.9 | 18.1 | 35.4 | > 100 | > 100 | 18.7 | 41.4
14 | COC(=O)NN=C1C(C)(C)C(=NNC(=O)OC)C1(C)C |  | > 100 |  | > 50.9 |  | > 55.9 |  | > 100 |  | > 100 |  | > 100 |  | > 100 |  | > 100 |  | > 100 |  | 
15 | CN(C)NC(=S)NC12CC3CC(CC(C3)C1)C2 |  | > 100 |  | > 100 |  | > 100 |  | > 100 |  | > 100 |  | > 100 |  | > 100 |  | > 100 |  | > 100 |  | 
16 | C[n+]1ccc2[nH]c3ccccc3c2c1 |  | > 100 |  | > 100 |  | > 100 |  | > 100 |  | > 100 |  | > 100 |  | > 100 |  | > 100 |  | > 100 |  | 
17 | CCCCCC/C=C/CCCCCCCc1cccc(O)c1C(=O)O |  | > 100 |  | > 100 |  | > 100 |  | > 100 |  | > 100 |  | > 100 |  | > 100 |  | > 100 |  | 99.8 |  | 
18 | O=C(Nc1cc([N+](=O)[O-])cc([N+](=O)[O-])c1)OC1C2CCC1C1OC1C2 (stereo not drawn) |  | > 50 |  |  |  | > 50 |  |  |  | > 50 |  | > 50 |  | > 50 |  | > 50 |  | > 50 |  | 
19 | CCC[CH2][Sn]1([CH2]CCC)[O]CC([CH2][Sn]([c]2ccccc2)([c]2ccccc2)[c]2ccccc2)[O]1 (stereo not drawn) | 6.79 | 19 |  |  | 15.2 | 34 |  |  | 13.4 | 26.3 | 13.8 | 27 | 5.95 | 20.2 | 10.6 | 22.6 | 19.1 | 33.2 |  | 
20 | CN(/C(=N\O)c1ccccc1)c1ccccc1 |  | 97 |  | 75.7 |  | 64.9 |  | > 100 |  | 74.3 |  |  |  |  |  |  |  |  |  | 
